Experimental data: patent US20230043948A1, “METHOD AND KIT FOR CELL GROWTH” (PRECISION CANCER TECHNOLOGIES INC ., priority 2019, published 2023)
Entries after “also recorded” stand apart in the source; their conditions may differ. Where two headings read alike, the source gives them in different places.

Legend:
[1] = test system: lung cancer cells overexpressing the EGFR receptor (PDX); assay: ex vivo drug testing of lung cancer cells overexpressing EGFR in 3D hydrogel; assay type: cell-based, human
[2] = test system: lung cancer cells overexpressing the c-Met receptor (PDX, LXFA-1647); assay: ex vivo drug testing of lung cancer cells overexpressing c-Met in a 3D hydrogel array / Matrigel; assay type: cell-based, human
Text: A PEG was used as a hydrogel precursor molecule for making a non self-degradable hydrogel. As a crosslinking agent, peptides containing at least two, preferably two cysteine moieties were used which varied in their amino acid sequence, in particular with respect to the presence or absence of a RGD adhesion motif and with respect to the presence or absence of a MMP degradation sequence. A further variation that was made to some hydrogels was the attachment of a bioactive ligand comprising a RGD adhesion motif or/and a ligand selected from the group consisting of natural laminins, recombinant laminin isoforms, and biofunctional fragments thereof. Examples of suitable recombinant laminin isoforms are laminin-111, laminin-211, laminin-332, laminin-411, laminin-511, or laminin-521. An array of hydrogels varying in the above preselected features was established, by the method described above.
The mechanical properties of the hydrogels were also varied (soft (50-1000 Pa), medium (1000-2000 Pa) or hard (2000-3000 Pa) gels).
For comparison, tests were also conducted in the undefined natural-derived matrix Matrigel®.
The respective drug was added to the culture media after 1 to 8 days of culture (1 to 8 days post cell encapsulation). The drug response was measured after 5 to 10 days post-drug addition. As a preferred culture medium, a medium was preselected that is characterized by the presence of FBS (serum) or Wnt agonists such as R-spondin. According to this example, a culture medium was used that was adapted from the medium described in Sachs et al. (The EMBO Journal e 100300|2019). The preferred culture medium comprised AdDMEM/F12 medium supplemented with glutamine, Noggin, EGF, fibroblast growth factor 7 and 10 [FGF7 and FGF10], HGF, R-spondin-conditioned medium, Primocin, penicillin/streptomycin, N-acetyl-L-cysteine, Nicotinamide, A83-01, SB202190 (p38-inhibitor), Y-27632 (rock inhibitor), B27 supplement and HEPES. Target expression (c-Met and Phospho c-Met) was detected by Western-blot in corresponding growth conditions.

[3] = test system: non-small cell lung cancer (NSCLC) model LXFA-1647; assay: in vivo treatment of patient-derived xenograft (PDX) NSCLC model; set-up: species or system human; settings: PDX NSCLC model LXFA-1647
[4] = responder conditions of example 1a (hydrogel without any RGD motif), FIG. 1e
[5] = Matrigel as matrix (comparative example 1), FIG. 1c
[6] = conditions of example 1a: soft non self-degradable PEG hydrogel without any RGD motif (responder conditions), FIG. 1b

Row | Structure (SMILES) | drug response (effect of treatment) [1, 4] | drug response (effect of treatment) [2, 5] | drug response (effect of treatment) [2, 6] | drug response (effect of treatment) [1] | tumor growth in vivo [3] | drug response (effect of treatment) ([2]; hydrogel with 1 mM bioactive ligand comprising a RGD motif attached (non-responder conditions, example 1b))
1 | CC(=O)O[C@H]1C(=O)[C@@]2(C)[C@H]([C@H](OC(=O)c3ccccc3)[C@]3(O)C[C@H](OC(=O)[C@H](O)[C@@H](NC(=O)c4ccccc4)c4ccccc4)C(C)=C1C3(C)C)[C@]1(OC(C)=O)CO[C@@H]1C[C@@H]2O [Paclitaxel] | clear effect | – | – | – | – | –
2 | CC(=O)O[C@@]12CO[C@@H]1C[C@H](O)[C@@]1(C)C(=O)[C@H](O)C3=C(C)[C@@H](OC(=O)[C@H](O)[C@@H](NC(=O)OC(C)(C)C)c4ccccc4)C[C@@](O)([C@@H](OC(=O)c4ccccc4)[C@H]21)C3(C)C [Docetaxel] | – | an effect | clearly effective | – | – | –
3 | C#Cc1cccc(Nc2ncnc3cc(OCCOC)c(OCCOC)cc23)c1 [Erlotinib] | – | – | – | clear effect | – | –
4 | OCCn1cc(-c2cnc3nnn(Cc4ccc5ncccc5c4)c3n2)cn1 [PF-04217903] | no effect | did not respond; also recorded: No effect | clearly effective | – | induces tumor growth regression | resistant
